Measured values as given in ChEMBL document CHEMBL1201862, “PubChem BioAssay data set” (2004).
Calls of active or inactive are those of the source.

Assays:
cells [1] = assay type: functional, cell-based
Exodeoxyribonuclease V = Exodeoxyribonuclease V (Escherichia coli (strain K12), UniProt P04993+P07648+P08394); assay: E. coli RecBCD inhibitors, dose response, counter-screen for AddAB inhibitor project, absorbance, V66 E. coli, mutant T4 phage (AID 492957); assay type: functional, cell-based, Escherichia coli str. K-12 substr. MG1655
Streptokinase A = biological target: T1, Streptokinase A (Streptococcus pyogenes serotype M1, UniProt P10520); assay: S. pyogenes streptokinase expression inhibitors, potency, dose response, plasminogen activation absorbance, OD405 (AID 1914); assay type: functional, Streptococcus pyogenes M1 GAS;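 note: secreted streptokinase activity via plasminogen activation per viability signal from cell pellet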
T1 sequence (P10520 whole entry): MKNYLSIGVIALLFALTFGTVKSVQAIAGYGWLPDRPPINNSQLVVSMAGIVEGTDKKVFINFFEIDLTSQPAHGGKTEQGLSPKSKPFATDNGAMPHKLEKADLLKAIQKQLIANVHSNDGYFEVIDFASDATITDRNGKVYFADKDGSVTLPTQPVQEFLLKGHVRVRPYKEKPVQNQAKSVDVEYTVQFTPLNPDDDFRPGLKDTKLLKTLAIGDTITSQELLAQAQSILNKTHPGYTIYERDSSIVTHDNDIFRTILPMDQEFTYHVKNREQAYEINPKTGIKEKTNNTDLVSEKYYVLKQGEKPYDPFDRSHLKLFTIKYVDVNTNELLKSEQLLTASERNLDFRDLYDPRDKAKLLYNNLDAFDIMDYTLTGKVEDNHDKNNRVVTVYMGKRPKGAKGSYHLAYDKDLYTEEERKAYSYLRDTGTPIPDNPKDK

Nonstructural protein 1 = Nonstructural protein 1 (Influenza A virus, UniProt Q194T2); assay type: functional, Influenza A virus (A/California/07/2009(H1N1))
[2] = biological target: Heat shock protein HSP 90-alpha (Homo sapiens, UniProt P07900); assay type: functional, organism-based
[3] = biological target: T2, Replicative DNA helicase DnaB (Mycobacterium tuberculosis, UniProt P9WMR3); assay: DnaB intein splicing inhibitors, dose response, biochemical, cell-free fluorescence (AID 449749); assay type: functional
T2 sequence (P9WMR3 whole entry): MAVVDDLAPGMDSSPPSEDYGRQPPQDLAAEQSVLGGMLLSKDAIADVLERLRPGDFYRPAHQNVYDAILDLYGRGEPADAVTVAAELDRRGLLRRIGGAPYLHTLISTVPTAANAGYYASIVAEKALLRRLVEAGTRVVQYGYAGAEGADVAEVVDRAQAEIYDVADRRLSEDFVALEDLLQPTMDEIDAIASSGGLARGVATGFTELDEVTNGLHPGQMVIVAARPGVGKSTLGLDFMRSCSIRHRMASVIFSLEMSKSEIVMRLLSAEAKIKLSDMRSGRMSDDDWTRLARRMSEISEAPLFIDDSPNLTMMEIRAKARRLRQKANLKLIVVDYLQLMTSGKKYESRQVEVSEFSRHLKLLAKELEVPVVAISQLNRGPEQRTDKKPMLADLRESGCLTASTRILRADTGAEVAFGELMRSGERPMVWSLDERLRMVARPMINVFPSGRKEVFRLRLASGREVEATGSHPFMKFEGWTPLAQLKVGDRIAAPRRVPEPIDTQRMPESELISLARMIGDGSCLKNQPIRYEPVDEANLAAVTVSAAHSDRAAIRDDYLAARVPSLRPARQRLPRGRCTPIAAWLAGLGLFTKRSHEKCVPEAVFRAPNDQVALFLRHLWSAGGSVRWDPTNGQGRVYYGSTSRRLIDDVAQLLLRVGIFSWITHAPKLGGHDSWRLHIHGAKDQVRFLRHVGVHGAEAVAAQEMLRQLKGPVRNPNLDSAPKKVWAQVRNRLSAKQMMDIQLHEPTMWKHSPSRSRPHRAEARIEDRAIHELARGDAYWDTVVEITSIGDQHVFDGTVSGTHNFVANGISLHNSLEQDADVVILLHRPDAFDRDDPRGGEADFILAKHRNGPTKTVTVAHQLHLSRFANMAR

[4] = Luminescence Cell-Based Dose Response HTS to Identify Inhibitors of 5'UTR Stem-Loop Driven Prion Protein mRNA Translation in H4 Neuroglioblastoma Cells. [Related pubchem assays: 1827 (Project Summary), 1813 (Primary HTS)]; assay type: functional
BJ [5] = assay: cytotoxicity toward Ras-transformed BJeLR fibroblasts, dose response, cell-based, alamar blue fluorescence, cherrypicked samples (AID 2631); assay type: functional; conditions: Homo sapiens;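 note: confirmatory dose-response assay in RAS-dependent BJ fibroblasts engineered with TERT, LT and ST, with cytotoxicity read by fluorescence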
[6] = inhibitors of firefly luciferase expression or activity, dose response, H4 neuroglioma cells, luminescence (AID 1990); assay type: functional, cell-based
INS1 = assay: beta cell apoptosis inhibitors, cytokine rescue, dose response, luminescence, retest (AID 449756); assay type: functional, cell-based; conditions: Rattus norvegicus, INS1;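 note: cell death triggered by IL-1 beta plus TNF-alpha plus IFN-gamma mixture; protective hits raise ATP signal compared with cytokine alone wells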
cells [7] = assay type: functional, cell-based; remark: listed apart in the source
BJ [8] = assay: cytotoxicity toward BJ-TERT fibroblasts, dose response, cell-based, RAS-independent, luminescence (AID 1933); assay type: functional; conditions: Homo sapiens
BJ [9] = assay: cytotoxicity toward BJ-TERT-LT-ST fibroblasts, dose response, cell-based, RAS-independent, luminescence (AID 1935); assay type: functional; conditions: Homo sapiens;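 note: BJ fibroblasts immortalized with TERT plus LT and ST oncogenes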
[10] = Counterscreen for AddAB inhibitors: absorbance-based bacterial cell-based high throughput dose response assay for inhibitors of bacterial viability. [Related pubchem assays (depositor defined):AID435030, AID449728, AID449731, AID488942, AID488955, AID488956]; assay type: functional
[11] = cytotoxicity toward DRD oncogenic fibroblasts, dose response, cell-based, non-viral oncogenic, luminescence (AID 1934); assay type: functional; conditions: Homo sapiens
BJ [12] = assay: cells; assay type: functional, cell-based; conditions: Homo sapiens
[13] = inhibitors of SNCA 5'UTR-driven reporter translation, confirmation, H4 neuroglioma cells, luminescence (AID 1988); assay type: functional, cell-based
Streptococcus = assay: Group A Streptococcus viability loss, dose response, counter-screen for streptokinase expression inhibitor project, luminescence, BacTiterGlo (AID 1915); assay type: functional, organism-based;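 note: potency for reduction of bacterial viability or growth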
Protein RecA = biological target: T3, Protein RecA (Mycobacterium tuberculosis, UniProt P9WHJ3); assay: Fluorescence Cell-Free Homogeneous Dose Retest to Identify Inhibitors of RecA-Intein Splicing Activity. [Related pubchem assays (depositor defined):AID2097, AID2223, AID489010, AID492950]; assay type: functional
T3 sequence (P9WHJ3 whole entry): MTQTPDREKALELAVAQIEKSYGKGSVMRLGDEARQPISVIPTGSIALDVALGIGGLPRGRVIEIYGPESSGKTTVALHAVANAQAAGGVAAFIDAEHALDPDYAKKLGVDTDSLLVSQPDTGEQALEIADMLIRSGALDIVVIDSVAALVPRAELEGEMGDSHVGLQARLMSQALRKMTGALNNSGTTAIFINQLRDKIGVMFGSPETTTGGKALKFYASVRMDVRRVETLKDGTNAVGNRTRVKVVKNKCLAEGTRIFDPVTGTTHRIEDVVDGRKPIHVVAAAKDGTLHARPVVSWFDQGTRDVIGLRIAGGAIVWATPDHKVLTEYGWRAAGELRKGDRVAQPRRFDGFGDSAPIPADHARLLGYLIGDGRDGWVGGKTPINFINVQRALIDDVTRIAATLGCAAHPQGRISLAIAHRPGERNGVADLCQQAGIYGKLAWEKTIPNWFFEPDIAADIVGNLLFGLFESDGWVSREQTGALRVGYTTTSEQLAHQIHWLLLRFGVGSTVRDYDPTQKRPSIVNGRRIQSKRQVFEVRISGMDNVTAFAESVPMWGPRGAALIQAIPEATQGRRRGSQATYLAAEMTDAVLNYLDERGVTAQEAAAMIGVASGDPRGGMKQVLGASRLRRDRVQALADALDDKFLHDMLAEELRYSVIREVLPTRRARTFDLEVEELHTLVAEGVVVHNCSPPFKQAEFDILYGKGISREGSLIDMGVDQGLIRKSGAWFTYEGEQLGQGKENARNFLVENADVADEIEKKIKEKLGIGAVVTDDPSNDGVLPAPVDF

[14] = tested on: Streptococcus sp. 'group A'; assay: growth inhibition of control SK(-) GAS strain, dose response, counter-screen for streptokinase expression inhibitor project, luminescence, kanamycin, BacTiterGlo, confirmation (AID 1900); assay type: functional, organism-based
[15] = biological target: Tyrosine-protein phosphatase non-receptor type 12 (Homo sapiens, UniProt Q05209); assay: SAR Selectivity Analysis of small molecule inhibitors of PEST using pCAP in a fluorescence assay. [Related pubchem assays (depositor defined):AID1779, AID1784, AID2135]; assay type: functional
[16] = biological target: T4, Tyrosine-protein phosphatase non-receptor type 22 (Homo sapiens, UniProt Q9Y2R2); assay: LYP (PTPN22) phosphatase inhibitor potency, SAR follow-up, biochemical, pCAP fluorogenic substrate, fluorescence, set 3 (AID 449727); assay type: functional
Phospholipase A2 = Phospholipase A2 (Homo sapiens, UniProt P04054); assay type: functional;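 note: confirmatory dose-response counterscreen on phospholipase A2, testing hits that came from an ultra-high-throughput screen for ATG4B inhibitors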
[17] = biological target: G-protein coupled receptor 55 (Homo sapiens, UniProt Q9Y2T6); assay: GPR55 antagonists, SAR follow-up, counter-screen for GPR35 antagonist project, imaging, image-based (AID 2397); assay type: functional
[18] = biological target: G-protein coupled receptor 35 (Homo sapiens, UniProt Q9HC97); assay: SAR Analysis for the identification of Selective Antagonists of ERK1/2 Activity in GPR35-Overexpressing U2OS Cells. [Related pubchem assays: 2079, 2058 ]; assay type: functional, cell-based
[19] = biological target: T4, Tyrosine-protein phosphatase non-receptor type 22; assay: SAR LYP1 Fluorescent Assay using OMFP substrate for In Vitro dose response studies - Set 3. [Related pubchem assays (depositor defined):AID1779, AID1784, AID2140, AID2686]; assay type: functional
Cysteine protease ATG4B = biological target: T5, Cysteine protease ATG4B (Homo sapiens, UniProt Q9Y4P1); assay type: functional;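 note: Fluorescence-based dose-response confirmation assay measuring inhibition of ATG4B activity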
T5 sequence (Q9Y4P1 whole entry): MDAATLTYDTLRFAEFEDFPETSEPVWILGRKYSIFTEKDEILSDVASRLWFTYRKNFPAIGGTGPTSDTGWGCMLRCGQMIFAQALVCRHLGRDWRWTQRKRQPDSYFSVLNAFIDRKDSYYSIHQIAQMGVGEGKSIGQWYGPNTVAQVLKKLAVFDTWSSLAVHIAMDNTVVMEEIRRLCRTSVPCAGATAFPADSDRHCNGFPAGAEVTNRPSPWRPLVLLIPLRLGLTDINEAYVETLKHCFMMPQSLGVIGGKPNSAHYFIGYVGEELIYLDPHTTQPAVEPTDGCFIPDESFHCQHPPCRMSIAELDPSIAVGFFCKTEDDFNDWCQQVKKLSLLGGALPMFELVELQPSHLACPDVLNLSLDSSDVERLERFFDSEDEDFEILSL

[20] = HIV-1 Env-mediated cell fusion inhibitors, dose response, CCR5-tropic Env (AID 2279); assay type: functional
[21] = biological target: Tyrosine-protein phosphatase non-receptor type 7 (Homo sapiens, UniProt P35236); assay: HePTP (PTPN7) phosphatase inhibitor potency, SAR follow-up, biochemical, set 2 (AID 449736); assay type: functional
Sequence of Tyrosine-protein phosphatase non-receptor type 7 (P35236 whole entry): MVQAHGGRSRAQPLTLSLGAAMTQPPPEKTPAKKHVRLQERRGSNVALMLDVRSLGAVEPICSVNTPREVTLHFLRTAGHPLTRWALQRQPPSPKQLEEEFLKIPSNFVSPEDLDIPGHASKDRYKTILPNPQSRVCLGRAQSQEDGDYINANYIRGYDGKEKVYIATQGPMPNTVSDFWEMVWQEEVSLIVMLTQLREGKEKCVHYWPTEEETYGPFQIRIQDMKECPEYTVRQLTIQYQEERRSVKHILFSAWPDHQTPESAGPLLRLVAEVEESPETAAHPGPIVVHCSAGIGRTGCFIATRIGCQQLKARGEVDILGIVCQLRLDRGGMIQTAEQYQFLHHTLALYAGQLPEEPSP

T4 sequence (Q9Y2R2 whole entry): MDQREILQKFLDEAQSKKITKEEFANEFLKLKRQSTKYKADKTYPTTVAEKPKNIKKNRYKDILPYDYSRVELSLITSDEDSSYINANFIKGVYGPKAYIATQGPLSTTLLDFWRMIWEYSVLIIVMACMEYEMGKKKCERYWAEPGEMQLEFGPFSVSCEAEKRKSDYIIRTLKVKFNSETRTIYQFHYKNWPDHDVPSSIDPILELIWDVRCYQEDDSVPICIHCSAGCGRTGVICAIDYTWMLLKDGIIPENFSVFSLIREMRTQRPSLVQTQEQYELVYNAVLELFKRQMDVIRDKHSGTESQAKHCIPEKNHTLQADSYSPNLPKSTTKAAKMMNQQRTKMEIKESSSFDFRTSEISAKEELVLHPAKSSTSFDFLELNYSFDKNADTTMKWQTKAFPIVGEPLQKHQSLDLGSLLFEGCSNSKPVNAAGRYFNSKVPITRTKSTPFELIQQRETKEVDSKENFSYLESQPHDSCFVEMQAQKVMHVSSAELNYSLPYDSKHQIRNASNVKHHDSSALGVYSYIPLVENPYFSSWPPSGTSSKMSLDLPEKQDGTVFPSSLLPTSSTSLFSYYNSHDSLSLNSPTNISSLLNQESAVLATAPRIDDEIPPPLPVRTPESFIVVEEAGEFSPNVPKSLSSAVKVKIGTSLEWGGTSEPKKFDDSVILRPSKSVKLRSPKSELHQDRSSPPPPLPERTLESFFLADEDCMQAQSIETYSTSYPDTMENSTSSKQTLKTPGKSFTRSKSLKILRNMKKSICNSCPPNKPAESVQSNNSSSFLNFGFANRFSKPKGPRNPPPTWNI
Sequence of Phospholipase A2 (P04054 whole entry): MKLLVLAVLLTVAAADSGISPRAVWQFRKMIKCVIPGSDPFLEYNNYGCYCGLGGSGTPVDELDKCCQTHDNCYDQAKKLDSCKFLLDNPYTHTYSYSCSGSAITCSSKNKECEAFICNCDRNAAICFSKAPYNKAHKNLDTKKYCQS
Sequence of G-protein coupled receptor 55 (Q9Y2T6 whole entry): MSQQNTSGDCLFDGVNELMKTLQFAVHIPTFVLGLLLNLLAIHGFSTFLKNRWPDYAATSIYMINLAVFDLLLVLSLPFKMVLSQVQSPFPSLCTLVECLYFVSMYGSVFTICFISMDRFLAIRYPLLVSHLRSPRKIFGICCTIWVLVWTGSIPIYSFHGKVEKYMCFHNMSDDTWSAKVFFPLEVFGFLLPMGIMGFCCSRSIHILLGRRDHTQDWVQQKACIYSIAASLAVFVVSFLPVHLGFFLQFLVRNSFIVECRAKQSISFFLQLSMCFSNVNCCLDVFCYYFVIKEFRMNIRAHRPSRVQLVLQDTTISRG
Sequence of G-protein coupled receptor 35 (Q9HC97 whole entry): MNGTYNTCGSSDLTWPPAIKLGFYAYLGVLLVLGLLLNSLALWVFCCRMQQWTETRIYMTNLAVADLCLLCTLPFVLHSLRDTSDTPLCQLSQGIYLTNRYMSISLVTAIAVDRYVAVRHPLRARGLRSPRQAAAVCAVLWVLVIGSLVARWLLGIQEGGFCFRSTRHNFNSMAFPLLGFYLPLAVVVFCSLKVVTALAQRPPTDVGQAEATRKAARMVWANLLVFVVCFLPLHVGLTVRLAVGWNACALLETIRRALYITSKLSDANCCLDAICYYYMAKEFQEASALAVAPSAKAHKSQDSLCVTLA
Sequence of Nonstructural protein 1 (Q194T2 whole entry): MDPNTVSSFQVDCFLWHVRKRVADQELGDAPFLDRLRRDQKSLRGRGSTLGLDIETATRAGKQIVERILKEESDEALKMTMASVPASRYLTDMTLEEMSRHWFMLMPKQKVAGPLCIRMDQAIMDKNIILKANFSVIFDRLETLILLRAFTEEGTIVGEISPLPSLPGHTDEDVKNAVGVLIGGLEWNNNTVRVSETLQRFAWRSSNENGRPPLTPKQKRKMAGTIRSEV
Sequence of Tyrosine-protein phosphatase non-receptor type 12 (Q05209 whole entry): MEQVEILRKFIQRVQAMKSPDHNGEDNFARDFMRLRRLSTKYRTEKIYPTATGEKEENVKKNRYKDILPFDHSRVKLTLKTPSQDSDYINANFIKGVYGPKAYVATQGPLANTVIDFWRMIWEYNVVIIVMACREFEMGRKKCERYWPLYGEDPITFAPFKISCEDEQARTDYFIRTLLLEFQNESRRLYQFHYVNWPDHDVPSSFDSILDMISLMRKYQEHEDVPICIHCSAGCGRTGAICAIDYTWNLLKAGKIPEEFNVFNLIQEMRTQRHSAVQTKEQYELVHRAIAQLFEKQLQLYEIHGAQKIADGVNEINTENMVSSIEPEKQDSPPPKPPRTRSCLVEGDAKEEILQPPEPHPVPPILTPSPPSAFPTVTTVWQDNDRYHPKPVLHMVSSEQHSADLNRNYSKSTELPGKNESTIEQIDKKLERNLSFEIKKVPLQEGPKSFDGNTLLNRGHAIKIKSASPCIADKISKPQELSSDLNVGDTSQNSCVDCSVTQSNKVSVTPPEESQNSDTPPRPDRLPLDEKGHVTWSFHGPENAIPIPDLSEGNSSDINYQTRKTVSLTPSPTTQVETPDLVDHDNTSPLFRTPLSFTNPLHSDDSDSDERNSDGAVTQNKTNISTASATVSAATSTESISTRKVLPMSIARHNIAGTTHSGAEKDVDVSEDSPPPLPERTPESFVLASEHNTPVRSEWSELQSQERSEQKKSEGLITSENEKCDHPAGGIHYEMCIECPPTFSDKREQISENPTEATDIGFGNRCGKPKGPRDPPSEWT

## c1ccc(-c2nnc(-c3ccccn3)nc2NC2CCCCC2)cc1
Cells [1]
  EC50: > 350 µM (not active)
Exodeoxyribonuclease V
  IC50: > 39.5 µM (inactive)
Streptokinase A
  EC50: > 50 µM (not active)
Nonstructural protein 1
  IC50: 1.21 µM (active)
[2]
  AC50: 3.99 µM (active)
[3]
  AC50: 9.45 µM (active)
[4]
  EC50: 18.8 µM (active)
BJ [5]
  EC50: 0.585 µM (inconclusive)
[6]
  EC50: 0.513 µM (inconclusive)
INS1
  AC50: 3.94 µM (active)
Cells [7]
  EC50: 32.6 µM (active)
BJ [8]
  EC50: 3.21 µM (active)
BJ [9]
  EC50: 3.31 µM (inconclusive)
[10]
  IC50: > 39.5 µM (inactive)
[11]
  EC50: 4.27 µM (active)
BJ [12]
  EC50: 4.7 µM (active)
[13]
  EC50: 1.66 µM (inconclusive)
Streptococcus
  EC50: 4.21 µM (active)
Protein RecA
  EC50: 16.9 µM (active)
[14]
  EC50: 4.44 µM (active)

## CC(/C=C1\SC(=S)N(CCCC(=O)Nc2ccc(C(=O)O)cc2)C1=O)=C\c1ccccc1
[15]
  IC50: 8.24 µM (active)
[16]
  IC50: 47.1 µM (active)
Phospholipase A2
  IC50: 5.33 µM (active)
[17]
  IC50: 17.9 µM (inactive)
[18]
  IC50: 1.59 µM (active)
[19]
  IC50: 34.8 µM (active)
Cysteine protease ATG4B
  IC50: 6.85 µM (active)
[20]
  IC50: 38.9 µM (active)
Streptococcus
  EC50: 1.04 µM (active)
[14]
  EC50: 0.274 µM (active)
[21]
  IC50: 1.28 µM (active)
